Source: the supplement of paper PMC10307832

Legend:
Assay in all cases: relative viability (nuclei count vs DMSO), 5 days (fraction); higher = more cells survive
[1] = compound: CS(=O)(=O)c1ccc(C(=O)Nc2ccc(Cl)c(-c3ccccn3)c2)c(Cl)c1 [Vismodegib] + C[C@]1(O)C[C@@H](c2nc(-c3ccc4ccc(-c5ccccc5)nc4c3)c3c(N)nccn32)C1 [Linsitinib] (partner 1 µM)
Outline: (§1)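 After 5 days of treatment, lung cancer cells in 1536-well plates were fixed and stained in a single step (final 0.05% Triton X-100, 1% formaldehyde, 1 ug/ml Hoechst) and their nuclei counted on 4× images. Treatment had been applied by pin tool the day after seeding as one drug alone or as a fixed anchor-drug dose with five library-drug doses (not always all listed) in √10 steps. Relative viability is the nuclei count of treated wells divided by that of vehicle wells, and values are medians of duplicate plates.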

[2] = compound: N#CC[C@H](C1CCCC1)n1cc(-c2ncnc3[nH]ccc23)cn1 [Ruxolitinib] + Cc1cc(Nc2cc(N3CCN(C)CC3)nc(Sc3ccc(NC(=O)C4CC4)cc3)n2)n[nH]1 [Tozasertib] (partner 0.1 µM)
Outline: as §1

[3] = compound: CS(=O)(=O)c1ccc(C(=O)Nc2ccc(Cl)c(-c3ccccn3)c2)c(Cl)c1 [Vismodegib] + CC(=O)Nc1cccc(-n2c(=O)n(C3CC3)c(=O)c3c(Nc4ccc(I)cc4F)n(C)c(=O)c(C)c32)c1 [Trametinib] (partner 0.02 µM)
Outline: as §1

[4] = compound: CS(=O)(=O)c1ccc(C(=O)Nc2ccc(Cl)c(-c3ccccn3)c2)c(Cl)c1 [Vismodegib] + Cc1nc(NC(=O)N2CCC[C@H]2C(N)=O)sc1-c1ccnc(C(C)(C)C(F)(F)F)c1 [Alpelisib] (partner 2 µM)
Outline: as §1

## UMC-11
[1]; first compound 0.08 µM
  relative viability: 0.931
[1]; first compound 0.253 µM
  relative viability: 0.996
[1]; first compound 0.8 µM
  relative viability: 1.06
[1]; first compound 2.53 µM
  relative viability: 0.927
[1]; first compound 8 µM
  relative viability: 1
[2]; first compound 0.08 µM
  relative viability: 0.206
[2]; first compound 0.253 µM
  relative viability: 0.206
[2]; first compound 0.8 µM
  relative viability: 0.203
[2]; first compound 2.53 µM
  relative viability: 0.214
[2]; first compound 8 µM
  relative viability: 0.2
[3]; first compound 0.08 µM
  relative viability: 0.422
[3]; first compound 0.253 µM
  relative viability: 0.669
[3]; first compound 0.8 µM
  relative viability: 0.609
[3]; first compound 2.53 µM
  relative viability: 0.618
[3]; first compound 8 µM
  relative viability: 0.375
[4]; first compound 0.08 µM
  relative viability: 1.01
[4]; first compound 0.253 µM
  relative viability: 1.01
[4]; first compound 0.8 µM
  relative viability: 1.05
[4]; first compound 2.53 µM
  relative viability: 0.957
[4]; first compound 8 µM
  relative viability: 0.952
